The NIST ThermoML archive (doi:10.1016/j.jct.2014.03.022)

Assay: xn = mol fraction of the nth substance listed
Conditions: for surface tension liquid-gas: Wilhelmy plate method; for viscosity: 101.3 kPa, Liquid, Concentric cylinders viscometry

CCCCCCCCO [octan-1-ol] + CN(C)C=O
Conditions	surface tension liquid-gas, 298.15 K [mN/m]	surface tension liquid-gas, 303.15 K [mN/m]	surface tension liquid-gas, 308.15 K [mN/m]	surface tension liquid-gas, 313.15 K [mN/m]	viscosity, 298.15 K [mPa·s]	viscosity, 303.15 K [mPa·s]	viscosity, 308.15 K [mPa·s]	viscosity, 313.15 K [mPa·s]
x2 = 0	27.47	26.42	25.41	24.38	7.661	6.402	5.425	4.628
x2 = 0.2198	28.07	26.98	25.95	24.91	4.082	3.243	2.678	2.2
x2 = 0.3728	28.37	27.25	26.18	25.13	2.636	2.012	1.646	1.35
x2 = 0.5208	28.77	27.6	26.5	25.43	1.794	1.355	1.106	0.9143
x2 = 0.6277	29.36	28.17	27.05	25.97	1.41	1.089	0.8992	0.7523
x2 = 0.7118	30.1	28.9	27.77	26.7	1.193	0.9412	0.804	0.7006
x2 = 0.7877	31.04	29.85	28.72	27.66	1.052	0.8817	0.765	0.6768
x2 = 0.8519	32.05	30.88	29.76	28.7	0.9693	0.8339	0.7497	0.6694
x2 = 0.9085	33.13	31.98	30.87	29.84	0.9042	0.8153	0.7484	0.6782
x2 = 0.9556	34.15	33.03	31.92	30.9	0.8603	0.7921	0.7395	0.6802

CCCCCCCCCO [nonan-1-ol] + CN(C)C=O
Conditions	surface tension liquid-gas, 298.15 K [mN/m]	surface tension liquid-gas, 303.15 K [mN/m]	surface tension liquid-gas, 308.15 K [mN/m]	surface tension liquid-gas, 313.15 K [mN/m]	viscosity, 298.15 K [mPa·s]	viscosity, 303.15 K [mPa·s]	viscosity, 308.15 K [mPa·s]	viscosity, 313.15 K [mPa·s]
x2 = 0	27.58	26.53	25.49	24.44	9.715	7.927	6.664	5.645
x2 = 0.2201	28.12	27.04	25.98	24.92	4.766	3.633	2.965	2.416
x2 = 0.3969	28.54	27.42	26.33	25.27	2.715	1.932	1.532	1.196
x2 = 0.5458	28.97	27.81	26.7	25.62	1.77	1.213	0.9531	0.7287
x2 = 0.6515	29.58	28.39	27.27	26.18	1.373	0.9494	0.7597	0.5913
x2 = 0.7321	30.3	29.11	27.98	26.9	1.156	0.8443	0.6817	0.5692
x2 = 0.8042	31.21	30.03	28.9	27.83	1.022	0.7978	0.6695	0.5762
x2 = 0.8644	32.19	31.02	29.9	28.85	0.9434	0.7834	0.6881	0.6071
x2 = 0.9168	33.23	32.08	30.97	29.93	0.8898	0.7837	0.7189	0.6468
x2 = 0.9596	34.2	33.07	31.97	30.95	0.8529	0.7764	0.727	0.6663

CCCCCCCCCCO [decan-1-ol] + CN(C)C=O
Conditions	surface tension liquid-gas, 298.15 K [mN/m]	surface tension liquid-gas, 303.15 K [mN/m]	surface tension liquid-gas, 308.15 K [mN/m]	surface tension liquid-gas, 313.15 K [mN/m]	viscosity, 298.15 K [mPa·s]	viscosity, 303.15 K [mPa·s]	viscosity, 308.15 K [mPa·s]	viscosity, 313.15 K [mPa·s]
x2 = 0	28.35	27.29	26.23	25.17	11.83	9.754	8.135	6.842
x2 = 0.2361	28.83	27.74	26.67	25.61	4.984	3.776	2.992	2.357
x2 = 0.4193	29.21	28.08	26.99	25.92	2.622	1.816	1.359	0.9811
x2 = 0.5688	29.6	28.43	27.31	26.23	1.623	1.092	0.7935	0.5801
x2 = 0.6724	30.14	28.95	27.82	26.74	1.238	0.8423	0.6257	0.47
x2 = 0.7496	30.78	29.6	28.46	27.38	1.03	0.7268	0.5631	0.443
x2 = 0.8185	31.61	30.43	29.3	28.23	0.9299	0.7011	0.5754	0.479
x2 = 0.8748	32.48	31.32	30.2	29.15	0.8732	0.7131	0.6216	0.5385
x2 = 0.923	33.41	32.27	31.15	30.12	0.8501	0.7459	0.6802	0.6027
x2 = 0.9632	34.3	33.18	32.07	31.05	0.8317	0.7627	0.7103	0.6468
